Results on four molecules are retold here after ChEMBL document CHEMBL1153255, “Studies on irreversible inhibition of serine proteases by -sulfonyloxyketone derivatives” (Bioorg Med Chem Lett, 1996).

Test [1] deals with Chymotrypsinogen A (Bos taurus) (UniProt P00766). Description: Compound was evaluated for inhibitory activity against alpha- chymotrypsin.
For test [2], the target named is T1, Chymotrypsin-like elastase family member 2A (Sus scrofa) (UniProt P08419).
T1 sequence (whole entry): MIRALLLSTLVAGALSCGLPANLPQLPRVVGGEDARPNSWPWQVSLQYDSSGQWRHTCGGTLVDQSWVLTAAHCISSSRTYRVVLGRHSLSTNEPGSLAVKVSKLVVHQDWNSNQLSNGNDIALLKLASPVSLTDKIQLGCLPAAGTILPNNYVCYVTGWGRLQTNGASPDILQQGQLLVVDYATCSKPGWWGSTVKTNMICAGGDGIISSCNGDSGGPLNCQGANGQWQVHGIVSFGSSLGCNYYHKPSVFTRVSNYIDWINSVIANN
Description: Compound was evaluated for inhibitory activity against porcine pancreatic elastase.

For test [3], the target named is Chymotrypsinogen A (Bos taurus) (UniProt P00766). Kind of test: Compound was evaluated for its inhibitory activity against alpha- chymotrypsin.
Test [4] addresses T1, Chymotrypsin-like elastase family member 2A (Sus scrofa). Kind of test: Compound was evaluated for inhibitory activity against porcine pancreatic elastase; No inactivation.

On to `CC(=O)C(C)OS(=O)(=O)c1ccccc1` (configuration not stated), for which the I is 3.28 mM in test [1] and 2.01 mM in test [2]. The figures for the K obs / 1 in test [1] and in test [2] were 0.01 M⁻¹ s⁻¹ and 0.19 M⁻¹ s⁻¹, respectively.

Take `CC(=O)C(Cc1ccccc1)OS(C)(=O)=O` (configuration not stated): in test [1], the I stood at 2.31 mM and the K obs / 1 turned out to be 0.33 M⁻¹ s⁻¹.

`Cc1ccc(S(=O)(=O)N[C@@H](Cc2ccccc2)C(=O)CCl)cc1`: the I in test [1] worked out at 0.057 mM. The molecule further gave a K obs / 1 in test [3] of 7.7 M⁻¹ s⁻¹.

Turning to `CC(=O)C(Cc1ccccc1)OS(=O)(=O)c1ccc(C)cc1` (configuration not stated), the “K obs / 1” value in test [4] is “No inhibition”; in test [1], 10.5 M⁻¹ s⁻¹. Also, the I in test [1] is 0.096 mM; in test [2] it was 0.103 mM.
